The results in this text go back to patent publication US5648336A (University of Colorado, priority 1994, dated 1997).

The target in assay [1] is T1, B1 receptors (Oryctolagus cuniculus, UniProt P48748).
T1 construct: The thorax was opened and the thoracic aorta carefully removed; from tissue; host or cells: rabbit thoracic aorta spiral strips
T1 sequence (P48748 1-352): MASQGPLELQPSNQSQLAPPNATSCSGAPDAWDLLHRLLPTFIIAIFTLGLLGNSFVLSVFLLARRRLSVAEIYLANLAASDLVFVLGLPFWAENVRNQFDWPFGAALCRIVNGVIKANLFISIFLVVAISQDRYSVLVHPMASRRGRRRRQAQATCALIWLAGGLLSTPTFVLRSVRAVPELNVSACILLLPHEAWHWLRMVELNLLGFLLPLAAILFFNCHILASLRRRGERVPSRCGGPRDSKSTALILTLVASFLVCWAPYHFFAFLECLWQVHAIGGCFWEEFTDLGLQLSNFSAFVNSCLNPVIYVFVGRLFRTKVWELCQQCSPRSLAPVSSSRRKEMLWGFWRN
Kind of assay: B1 receptor bioassay, rabbit aorta strips contracted with des-Arg9-BK. Type of assay: cell-based. The following applies: 50% reduction of sustained contraction to 10^-7 M des-Arg9-BK; read-out: Rabbit Aorta p IC50 B1 receptors (converted). The procedure: Male New Zealand white rabbits, weight range 2-3 kg, were killed by an overdose of pentobarbital i.v. The thorax was opened and the thoracic aorta carefully removed. […] The tissues were placed under 1 gm isometric tension and allowed to equilibrate for 1H. At time 1h, a concentration-effect curve was constructed to the selective B1 agonist des-Arg^9 -BK. This was repeated at time 3 hours. […] Once the contraction was sustained, the compound to be assayed was applied to the tissue bath in a cumulative manner. The concentration of the compound which produced a 50% reduction of the sustained contraction was calculated. The negative logarithm of this concentration was calculated and expressed as the […].

Assay [2] deals with isolated rat uterus. The source says: (§1) A change of one unit of pA2 value represents an order of magnitude change in potency.
(§2) On isolated smooth muscles, agonist potency is given as percent of BK potency; antagonist potency is given as pA2, and is underlined. In blood pressure assays, the number is the dose of peptide in micrograms that causes 50% reduction in the effect of BK intraarterially administered as a bolus mixture in a 500 g male rat; Ag indicates unquantitated agonist activity; Ant indicates unquantitated antagonist activity.

Assay [3] concerns guinea pig ileum.
Excerpt: as §1, §2

For assay [4], the target named is B2 receptors (Canis lupus familiaris, UniProt Q9BDQ4). The following applies: anaesthetized dog, i.v. infusion, BK challenge, n=3. The procedure: Mongrel dogs of either sex, weight range 10-15 kg were used. These were anaesthetized with pentobarbital, 30 mg/kg i.v., and catheters were placed in one femoral artery and both femoral veins for the recording of blood pressure and infusion and injection of compounds.
Sequence of B2 receptors (Q9BDQ4 1-392): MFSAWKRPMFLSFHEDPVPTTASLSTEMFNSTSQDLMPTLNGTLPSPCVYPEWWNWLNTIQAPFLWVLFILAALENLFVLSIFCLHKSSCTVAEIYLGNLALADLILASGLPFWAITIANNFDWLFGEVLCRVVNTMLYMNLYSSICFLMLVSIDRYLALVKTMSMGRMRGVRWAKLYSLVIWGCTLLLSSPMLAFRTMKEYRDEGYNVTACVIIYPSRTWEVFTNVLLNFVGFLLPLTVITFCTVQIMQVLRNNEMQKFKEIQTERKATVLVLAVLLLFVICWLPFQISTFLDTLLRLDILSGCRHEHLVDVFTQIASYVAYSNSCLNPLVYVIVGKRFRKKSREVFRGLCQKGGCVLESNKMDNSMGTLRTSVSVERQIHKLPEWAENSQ

The target in assay [5] is T2, B1 receptors (Canis lupus familiaris, UniProt Q9BDQ5).
T2 construct: Mongrel dogs of either sex, weight range 10-15 kg were used; from tissue; host or cells: anaesthetized mongrel dog, whole animal
T2 sequence (Q9BDQ5 1-350): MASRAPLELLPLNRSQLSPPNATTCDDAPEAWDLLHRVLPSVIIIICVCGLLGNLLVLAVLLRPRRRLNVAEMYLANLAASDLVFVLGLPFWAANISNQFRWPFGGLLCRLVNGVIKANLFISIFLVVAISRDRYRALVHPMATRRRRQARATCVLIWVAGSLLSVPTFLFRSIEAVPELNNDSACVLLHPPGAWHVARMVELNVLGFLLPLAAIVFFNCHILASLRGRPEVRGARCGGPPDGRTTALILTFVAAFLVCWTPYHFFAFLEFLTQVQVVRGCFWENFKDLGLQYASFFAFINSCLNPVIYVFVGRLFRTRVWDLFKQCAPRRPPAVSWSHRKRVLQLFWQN
Kind of assay: Dog blood pressure, hypotensive response to des-Arg9-BK. Type of assay: in vivo. To be noted: anaesthetized dog, i.v. infusion, des-Arg9-BK challenge, n=3.

The test system of assay [6] is hypotensive action of bradykinin. Kind of assay: Blood pressure in the anesthetized rat: inhibition of hypotensive action of bradykinin. Type of assay: in vivo. To be noted: intraarterial bolus mixture with BK, 500 g male rat; indicated approximately.
Excerpt: Potencies for the antagonists in this assay are not reported precisely, but rather are indicated approximately.
as §2

Assay [7] has as its target T3, Human B2 receptors (Homo sapiens, UniProt P30411).
T3 construct: expressed in transfected cells; membranes used
T3 sequence (P30411 1-364 isoform P30411-2): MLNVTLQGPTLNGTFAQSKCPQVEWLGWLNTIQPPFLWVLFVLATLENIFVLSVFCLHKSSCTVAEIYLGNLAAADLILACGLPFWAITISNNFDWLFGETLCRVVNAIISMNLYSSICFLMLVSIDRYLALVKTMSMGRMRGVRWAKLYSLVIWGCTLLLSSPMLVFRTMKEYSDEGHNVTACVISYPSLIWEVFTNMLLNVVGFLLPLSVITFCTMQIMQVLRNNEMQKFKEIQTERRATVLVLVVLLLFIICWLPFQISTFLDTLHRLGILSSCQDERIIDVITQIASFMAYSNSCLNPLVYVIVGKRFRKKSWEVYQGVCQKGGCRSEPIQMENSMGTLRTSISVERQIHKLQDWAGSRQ
Kind of assay: Human B2 binding, cloned receptor in CHO cell membranes, 3H-bradykinin. To be noted: CHO clone S34f membranes, 0.3 nM 3H-Bradykinin, room temperature 45 min; read-out: Human Receptor Clone B2 receptor binding (Ki) (converted). The source says: Human B2 receptors were cloned and expressed in Chinese hamster ovary cells. RNA was isolated from human lung fibroblasts (CCD-16 LU obtained from the ATCC) using the method of Chirgwin et al (Biochemistry 18:5294 (1979)). The RNA was transcribed into cDNA using MMLV reverse transcriptase, the primer […] and the procedure of Maniatis (Molecular Cloning Cold Spring Harbor Laboratory (1982)). The human B2 receptor cDNA was selectively amplified using nested PCR. The first round PCR used the two primers […] and […] and Taq DNA polymerase (Promega). Twenty-five rounds of PCR were done using the following conditions: 94° C., 1 minute for denaturation, 50° C., 1 minute for annealing followed by 72° C., 3 minutes for extension. Excess primers were removed with a Centricon 30 miniconcentrator. A portion of this first round reaction was used as a template in a second round of PCR using the following primers […] and […]. The number of rounds of PCR and the conditions were the same as those used for the first round. The DNA obtained after this second round was digested with the restriction enzymes Hind III and Xba I using standard methodology. Cesium chloride-purified pRc/CMV (Invitrogen) was also digested with Hind III and Xba I using standard methodology. The products of the two digests were resolved on a 1% low melt agarose gel. The human B2 receptor DNA (approximately 1.1 kb) and the pRc/CMV DNA (approximately 5.5 kb) were excised from the gel. The gel slices containing these DNAs were heated at 65° C. and aliquots combined in a reaction containing T4 DNA ligase. The reaction was incubated overnight at 15° C.
An aliquot of this reaction was used to transform frozen competent E. coli DH5α cells (GibcoBRL). Transformants containing the human B2 receptor DNA were selected on LB+amp plates. One of the transformants was selected and the sequence of the human B2 receptor DNA insert determined using the Sequenase enzyme (United States Biochemical) according to the manufacturer's instructions. This sequence was compared to the sequence of Hess et al (Biochemical and Biophysical Research Communications 184:260 1992)). […] The human BK2 receptor-pRc/CMV plasmid was transfected into CHO-k1 cells using the Lipofectamine reagent (GibcoBRL).
Cells containing the receptor were grown to confluence and harvested by scraping into PBS and homogenized. Membranes were prepared by centrifugation in 25 mM TES pH6.8 containing 1 mM 1.10 Phenanthroline. The final pellet was resuspended in assay buffer (25 mM TES, 1 mM 1.10 Phenanthroline, 1 mM DTT, […] Captopril, 0.1% BSA pH=6.8) and frozen. […] Incubation was carried out at room temperature for 45 min. The assay was terminated by filtration through a polyethylenimine soaked G-A filter. Radioactivity was measured on a Wallac 1450 MicroBeta LSC.
The Kd for the receptor was determined by kinetic analysis of on and off rates utilizing a single exponential decay off rate. Ki 's for compounds were calculated using the following equation: Ki =IC50 /(1+[L]/Kd), where L=free ligand concentration.

The mark [8] stands for this setting: guinea pig ileum, vs double ED50 dose of bradykinin.

Like-named read-outs stand apart in the source and are kept apart here. Square brackets hold non-standard residues; d marks the D form. Peptide text beside a SMILES is read from it. * marks the point of attachment. Adamantane1carbonyl = O=C(C12CC3CC(CC(C3)C1)C2)*; Oic = O=C(O)[C@@H]1C[C@@H]2CCCC[C@@H]2N1; dIgl = N[C@@H](C(=O)O)C1Cc2ccccc2C1; Hyp = O=C(O)[C@@H]1C[C@@H](O)CN1

For orientation: IC50 means the midpoint of a concentration-inhibition curve. Consider `N=C(N)NCCC[C@@H](N)C(=O)N[C@@H](CCCNC(=N)N)C(=O)N1CCC[C@H]1C(=O)N1C[C@H](O)C[C@H]1C(=O)NCC(=O)N[C@H](C(=O)N[C@@H](CO)C(=O)N[C@@H](C(=O)N1[C@H](C(=O)N[C@@H](CCCNC(=N)N)C(=O)O)C[C@@H]2CCCC[C@@H]21)C1Cc2ccccc2C1)C1Cc2ccccc2C1` [Compound 1, DArg-Arg-Pro-Hyp-Gly-Iglb-Ser-DIglb-O ic-Arg], for which the IC50 in assay [1] was 251 nM. For the same molecule, the “Uterus Activity, antagonist potency given as pA2” value (“Uterus Activity … as pA2” for short) in assay [2] is reported as 8.5. In assay [3], the “Ileum Activity, antagonist potency given as pA2” value (“Ileum Activity” below) was found to be 7.9. Besides, in assay [4], the “Mean ED50, B2 receptor-mediated hypotensive response” value turned out to be 0.03 mg/kg/min. Besides, in assay [5], the “Mean ED50, B1 receptor-mediated hypotensive response” value was 0.24 mg/kg/min.
For the molecule `N=C(N)NCCC[C@@H](N)C(=O)N[C@@H](CCCNC(=N)N)C(=O)N1CCC[C@H]1C(=O)N1C[C@H](O)C[C@H]1C(=O)NCC(=O)N[C@@H](Cc1cccs1)C(=O)N[C@@H](CO)C(=O)N[C@@H](C(=O)N1[C@H](C(=O)N[C@@H](CCCNC(=N)N)C(=O)O)C[C@@H]2CCCC[C@@H]21)C1Cc2ccccc2C1` [Compound 7, DArg-Arg-Pro-Hyp-Gly-Thi-Ser-DIglb-Oic-Arg], in assay [1], the IC50 was 141 nM. In addition, in assay [3], the “Ileum Activity” value was 7.4. Further, in assay [4], the “Mean ED50, B2 receptor-mediated hypotensive response” value amounted to 0.17 mg/kg/min. For the same molecule, the “Mean ED50, B1 receptor-mediated hypotensive response” value in assay [5] amounted to 0.35 mg/kg/min.
For `N=C(N)NCCC[C@@H](N)C(=O)N[C@@H](CCCNC(=N)N)C(=O)N1CCC[C@H]1C(=O)N1C[C@H](O)C[C@H]1C(=O)NCC(=O)N[C@@H](Cc1cccs1)C(=O)N[C@@H](CO)C(=O)N[C@@H](C(=O)N(CC(=O)N[C@@H](CCCNC(=N)N)C(=O)O)C1Cc2ccccc2C1)C1Cc2ccccc2C1` [Compound 28, DArg-Arg-Pro-Hyp-Gly-Thi-Ser-DIgl-Nigb-Arg], the “Blood Pressure: dose of peptide that causes 50% reduction in the effect of BK” value in assay [6] was found to be 0.05 micrograms. Moreover, the “Uterus Activity, agonist potency given as percent of BK potency” value in assay [2] (isolated rat uterus) amounted to 48.6%. Also, the “Ileum Activity” value in assay [3] (setting [8]) is given as 6.5.
What is called Ki is the equilibrium dissociation constant of an inhibitor or competing ligand from its target. On to `N=C(N)NCCC[C@H](NC(=O)[C@@H]1C[C@@H]2CCCC[C@@H]2N1C(=O)[C@H](NC(=O)[C@H](CO)NC(=O)[C@H](Cc1ccccc1)NC(=O)CNC(=O)[C@@H]1C[C@@H](O)CN1C(=O)[C@@H]1CCCN1C(=O)[C@H](CCCNC(=N)N)NC(=O)[C@@H](CCCNC(=N)N)NC(=O)C12CC3CC(CC(C3)C1)C2)C1Cc2ccccc2C1)C(=O)O` [Compound 53, Aca-DArg-Arg-Pro-Hyp-Gly-Phe-Ser-DIglb-Oic-Arg] (Adamantane1carbonyl-[dR]RP[Hyp]GFS[dIgl][Oic]R-OH), for which, in assay [7], the Ki was 0.0141 nM. Moreover, the IC50 in assay [1] is 1260 nM. Besides, in assay [2], the “Uterus Activity … as pA2” value is on record as 8.2. Further, the “Ileum Activity” value in assay [3] was 7.4.
For `N=C(N)NCCC[C@H](NC(=O)[C@@H]1C[C@@H]2CCCC[C@@H]2N1C(=O)[C@H](NC(=O)[C@H](CO)NC(=O)[C@H](Cc1cccs1)NC(=O)CNC(=O)[C@@H]1C[C@@H](O)CN1C(=O)[C@@H]1CCCN1C(=O)[C@H](CCCNC(=N)N)NC(=O)[C@@H](CCCNC(=N)N)NC(=O)CC12CC3CC(CC(C3)C1)C2)C1Cc2ccccc2C1)C(=O)O` [Compound 56, Aaa-DArg-Arg-Pro-Hyp-Gly-Thi-Ser-DIglb-Oic-Arg], the Ki in assay [7] is 0.398 nM. The IC50 in assay [1] is 692 nM. Further, in assay [2], the “Uterus Activity … as pA2” value came out at 7.7. Besides, the “Ileum Activity” value in assay [3] turned out to be 7.8.
As for `COc1cc(C=CC(=O)N[C@H](CCCNC(=N)N)C(=O)N[C@@H](CCCNC(=N)N)C(=O)N2CCC[C@H]2C(=O)N2C[C@H](O)C[C@H]2C(=O)NCC(=O)N[C@@H](Cc2cccs2)C(=O)N[C@@H](CO)C(=O)N[C@@H](C(=O)N2[C@H](C(=O)N[C@@H](CCCNC(=N)N)C(=O)O)C[C@@H]3CCCC[C@@H]32)C2Cc3ccccc3C2)cc(OC)c1O` [Compound 60, Sin-DArg-Arg-Pro-Hyp-Gly-Thi-Ser-DIglb-Oic-Arg], in assay [7], the inhibition constant Ki was 0.0692 nM. For the same molecule, the IC50 in assay [1] is 2090 nM. For the same molecule, the “Uterus Activity … as pA2” value in assay [2] was determined as 8.3. Moreover, the “Ileum Activity” value in assay [3] was 7.3.
For “Aca-DArg-Arg-Pro-Hyp-Gly-Thi-Ser-DHigb-Oic-Arg [Compound 124]”, the “Blood Pressure: dose of peptide that causes 50% reduction in the effect of BK” value in assay [6] was 0 micrograms. Moreover, the “Ileum Activity” value in assay [3] (setting [8]) amounted to 7.7.
Consider “DArg-Arg-Pro-Hyp-Gly-Thi-Ser-DIglb-Dic-Arg [Compound 41]”, for which the “Blood Pressure: dose of peptide that causes 50% reduction in the effect of BK” value in assay [6] came to 50 micrograms.
